Measured values as given in patent US6147097A, “Imidazole derivatives as anti-HIV agents” (Shionogi & Co., Ltd., priority 1994, dated 2000).
In brackets after ≈: the same amount, converted by molar mass. Where two headings read alike, the source gives them in different places.

How the values were obtained:
[1] = molecular target: T1, purified recombinant HIV-1 reverse transcriptase (Human immunodeficiency virus type 1 group M subtype B, UniProt P04585); assay: reverse transcriptase inhibition, poly(rA)/(dT) template primer, [3H]dTTP uptake; assay type: biochemical
T1 construct: purified recombinant HIV-1 reverse transcriptase; made in house; host or cells: Escherichia coli
How it was run: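 Inhibition reported as percent reduction of [3H]dTTP incorporation relative to solvent control, after 1 h at 37 °C at pH 8.3. Recombinant RT from E. coli, poly(rA) template with oligo(dT) primer, 4 μM unlabeled dTTP as substrate; product collected on DEAE filter mats.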

HIV (HTLV-IIIB strain) = assay: microbe, parasite or virus in culture; assay type: cell-based; settings: Human immunodeficiency virus 1, IIIB, MT4, 120 h
How it was run: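 Protection from virus was read as viable-cell MTT conversion to formazan after 5 days at 37° C. The cultures contained MT-4 cells (3.5×10^4/well), compound dilutions and 60 pfu HIV per well.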

[2] = cytotoxicity in MT-4 cells (MTT, culture medium in place of HIV); assay type: cell-based; settings: human
How it was run: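 Uninfected readout: compound-treated MT-4 cultures, 3.5×10^4 cells/well, received medium in place of virus and were kept 5 days at 37° C. Viability measured by 1 h MTT reduction, solubilized formazan read at 560/690 nm relative to control wells.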

[3] = MT-4 cells, 60 pfu HIV per well, 37° C., 5 days, MTT, Tables 1 and 2, read-out: EC50
[4] = MT-4 cells, no virus, 37° C., 5 days, MTT, Table 3, read-out: CC50

Row | SMILES | IC50 [1] [µM] | EC50 (HIV (HTLV-IIIB strain); [3]) [µg/mL] | CC50 at 120 h [2, 4] [µg/mL] | CC50 at 120 h ([2]; mt-4 cells) [µg/mL] | EC50 (HIV (HTLV-IIIB strain)) [µg/mL] | IC50 ([1]; read-out: RT IC50, pH 8.3, 37° C., 1 hour, Tables 5 and 6) [µM]
1 | C=CCn1c(CO)nc(C(C)C)c1Sc1cccc(Cl)c1 [Compound I-17, [1-allyl-5-(3-chlorophenylthio)-4-isopropyl-1H-imidazol-2-yl]methanol] | < 2.48 | 0.005 to 0.01 (≈ 0.0155 to 0.031 µM) | 6.3 to 12.5 (≈ 19.5 to 38.7 µM) | – | – | –
2 | CC(C)c1nc(CO)n(Cc2ccc([N+](=O)[O-])cc2)c1Sc1cc(Cl)cc(Cl)c1 [Compound 103a, 5-(3,5-dichlorophenylthio)-2-hydroxymethyl-4-isopropyl-1-(p-nitrobenzyl)-1H-imidazole] | 28.7 | < 0.008 | – | 6.3 to 12.5 (≈ 13.9 to 27.6 µM) | – | –
3 | CC(C)c1nc(CN)n(C)c1Sc1cccc([N+](=O)[O-])c1 [Compound I-67, 2-aminomethyl-4-isopropyl-1-methyl-5-(3-nitrophenylthio)-1H-imidazole] | 17.6 | 0.13 to 0.25 (≈ 0.424 to 0.816 µM) | 12.5 to 25 (≈ 40.8 to 81.6 µM) | – | – | –
4 | Cc1cc(C)cc(Sc2c(C(C)C)nc(CO)n2C)c1 [Compound I-9, [5-(3,5-dimethylphenylthio)-4-isopropyl-1-methyl-1H-imidazol-2-yl]methanol] | 8.26 | 0.008 (≈ 0.0275 µM) | 10 (≈ 34.4 µM) | – | – | –
5 | Cc1cc(C)cc([S+]([O-])c2c(C(C)C)nc(C)n2C)c1 (stereo not drawn) [Compound I-104, 5-(3,5-dimethylphenylsulfinyl)-4-isopropyl-1,2-dimethyl-1H-imidazole] | > 344 | 1 to 10 (≈ 3.44 to 34.4 µM) | 10 to 100 (≈ 34.4 to 344 µM) | – | – | –
6 | CC(C)c1nc(CCCOCc2ccccc2)n(CCO)c1Sc1cc(Cl)cc(Cl)c1 [Compound 136e, 2-(2-(3-benzyloxypropyl)-5-(3,5-dichlorophenylthio)-4-isopropyl-1H-imidazol-1-yl)-ethanol] | > 209 | 0.5 to 1 (≈ 1.04 to 2.09 µM) | – | 6.3 to 12.5 (≈ 13.1 to 26.1 µM) | – | –
7 | CC(C)c1nc(CN)n(CC(F)(F)F)c1Sc1cc(Cl)cc(Cl)c1 [Compound I-76, 2-aminomethyl-5-(3,5-dichlorophenylthio)-4-isopropyl-1-(2,2,2-trifluoroethyl)-1H-imidazole] | 8.79 | 0.016 (≈ 0.0402 µM) | 6.3 to 12.5 (≈ 15.8 to 31.4 µM) | – | – | –
8 | CCn1c(COCCOC(N)=O)nc(C(C)C)c1Sc1cc(Cl)cc(Cl)c1 [Compound I-63, 2-(2-carbamoyloxyethoxy)methyl-5-(3,5-dichlorophenylthio)-1-ethyl-4-isopropyl-1H-imidazole] | 10.9 | 0.25 (≈ 0.578 µM) | 12.5 (≈ 28.9 µM) | – | – | –
9 | CCn1c(COCCOC(C)=O)nc(C(C)C)c1Sc1cc(Cl)cc(Cl)c1 [Compound I-62, 2-{[5-(3,5-dichlorophenylthlio)-1-ethyl-4-isopropyl-1H-imidazol-2-yl]methoxy} ethyl acetate] | 15.8 | 0.03 to 0.06 | 12.5 to 25 | – | – | –
10 | Cc1nc(C(C)C)c(Sc2cccc(Cl)c2)n1C [Compound I-3, 5-(3-chlorophenylthio)-1,2-dimethyl-4-isopropylimidazole] | 3.56 | 0.03 (≈ 0.107 µM) | 12.5 (≈ 44.5 µM) | – | – | –
11 | CC(C)c1nc(CO)n(CCO)c1Sc1cc(Cl)cc(Cl)c1 [Compound 119b, 2-(5-(3,5-dichlorophenyl-thio)-2-hydroxymethyl-4-isopropyl-1H-imidazol-1-yl)ethanol] | 1.72 | < 0.008 | – | 12.5 to 25 (≈ 34.6 to 69.2 µM) | – | –
12 | CC(C)c1nc(COC(N)=O)n(Cc2cccnc2)c1Sc1cc(Cl)cc(Cl)c1 [Compound I-92, 2-carbamoyloxymethyl-5-(3,5-dichlorophenylthio)-4-isopropyl-1-(pyridin-3-yl)methyl-1H-imidazole] | 0.775 | – | – | 12.5 to 24 (≈ 27.7 to 53.2 µM) | 0.001 (≈ 0.00222 µM) | –
13 | CCOC(=O)Cn1c(COCc2ccccc2)nc(C(C)C)c1Sc1cc(Cl)cc(Cl)c1 [Compound 118b] | > 203 | 0.25 (≈ 0.507 µM) | – | 12.5 to 25 (≈ 25.3 to 50.7 µM) | – | –
14 | CC(C)c1nc(CO)n(C)c1Sc1cccc(Cl)c1 [Compound I-13, [5-(3-chlorophenylthio)-4-isopropyl-1-methyl-1H-imidazol-2-yl]methanol] | 2.7 | 0.06 (≈ 0.202 µM) | 25 (≈ 84.2 µM) | – | – | –
15 | CC(=N)NCc1nc(C(C)C)c(Sc2cc(Cl)cc(Cl)c2)n1C [Compound I-84] | > 269 | 1 (≈ 2.69 µM) | 1 to 10 (≈ 2.69 to 26.9 µM) | – | – | –
16 | CC(C)c1nc(CN)n(Cc2ccccn2)c1Sc1cc(Cl)cc(Cl)c1 [Compound I-95] | 1.74 | 0.03 to 0.06 (≈ 0.0736 to 0.147 µM) | – | 6.3 (≈ 15.5 µM) | – | –

Row | SMILES | IC50 [1] [µM] | EC50 (HIV (HTLV-IIIB strain); [3]) [µg/mL] | CC50 at 120 h [2, 4] [µg/mL] | CC50 at 120 h ([2]; mt-4 cells) [µg/mL] | EC50 (HIV (HTLV-IIIB strain)) [µg/mL] | IC50 ([1]; read-out: RT IC50, pH 8.3, 37° C., 1 hour, Tables 5 and 6) [µM]
17 | CC(C)c1nc(COCc2ccccc2)n(CCO)c1Sc1cc(Cl)cc(Cl)c1 [Compound 118c, 2-[2-benzyloxymethyl-5-(3,5-dichlorophenylthio)-4-i-sopropyl-1H-imidazol-1-yl]ethanol] | > 222 | 1 (≈ 2.22 µM) | – | 6.3 to 12.5 (≈ 14 to 27.7 µM) | – | –
18 | Cc1cc(C)cc([S+]([O-])c2c(C(C)C)nc(CO)n2C)c1 (stereo not drawn) [Compound I-106, [5-(3,5-dimethylphenylsulfinyl)-4-isopropyl-1-methyl-1H-imidazol-2-yl]methanol] | > 326 | 1 to 10 (≈ 3.26 to 32.6 µM) | 100 (≈ 326 µM) | – | – | –
19 | CC(C)c1nc(CO)n(Cc2ccc(N)cc2)c1Sc1cc(Cl)cc(Cl)c1 [Compound 104a, 1-(p-aminobenzyl)-5-(3,5-dichlorophenylthio)-2-hydroxymethyl-4-isopropyl-1H-imidazole] | 3.08 | < 0.008 | – | 12.5 to 25 (≈ 29.6 to 59.2 µM) | – | –
20 | CC(C)c1nc(CCO)n(Cc2ccncc2)c1Sc1cc(Cl)cc(Cl)c1 [Compound 123b, 2-[5-(3,5-dichlorophenylthio)-4-isopropyl-1-(pyridin-4-ylmethyl)-1H-imidazol-2-yl]ethanol] | 0.355 | 0.003 (≈ 0.0071 µM) | – | 12.5 to 25 (≈ 29.6 to 59.2 µM) | – | –
21 | CC(C)c1c(Sc2cc(Cl)cc(Cl)c2)nc(CO)n1C [Compound I-39, [4-(3,5-dichlorophenylthio)-5-isopropyl-1-methyl-1H-imidazol-2-yl]methanol] | 198 | 1 to 10 (≈ 3.02 to 30.2 µM) | 10 to 100 (≈ 30.2 to 302 µM) | – | – | –
22 | CC(C)c1nc(CO)n(Cc2ccccc2)c1Sc1cccc([N+](=O)[O-])c1 [Compound I-21, [1-benzyl-4-isopropyl-5-(3-nitrophenylthio)-1H-imidazol-2-yl]methanol] | 7.56 | 0.008 (≈ 0.0209 µM) | 6.3 to 12.5 (≈ 16.4 to 32.6 µM) | – | – | –
23 | CCn1c(CO)nc(C(C)C)c1Sc1cccc(Cl)c1 [Compound I-28, [1-ethyl-5-(3-chlorophenylthio)-4-isopropyl-1H-imidazol-2-yl]methanol] | 0.643 | 0.002 to 0.004 (≈ 0.00643 to 0.0129 µM) | 12.5 (≈ 40.2 µM) | – | – | –
24 | CC(C#N)c1nc(COC(N)=O)n(C)c1Sc1cccc(Cl)c1 (stereo not drawn) [Compound I-98, 2-[2-carbamoyloxymethyl-5-(3-chlorophenylthio)-1-methyl-1H-imidazol-4-yl]propiononitrile] | 105 | – | 10 to 100 (≈ 28.5 to 285 µM) | – | 1 (≈ 2.85 µM) | –
25 | CC(C)c1nc(COC(N)=O)n(C)c1Sc1cc(Cl)cc(Cl)c1 [Compound I-41, 2-carbamoyloxymethyl-5-(3,5-dichlorophenylthio)-4-isopropyl-1-methyl-1H-imidazole] | 1.34 | – | – | 8.5 (≈ 22.7 µM) | 0.016 (≈ 0.0427 µM) | –
26 | CC(C)c1nc(CN)n(Cc2ccncc2)c1Sc1cc(Cl)cc(Cl)c1 [I-95', 2-aminomethyl-5-(3,5-dichlorophenylthio)-4-isopropyl-1-(pyridin-4-yl)methyl-1H-imidazole] | 1.18 | 0.005 (≈ 0.0123 µM) | 6.3 to 12.5 (≈ 15.5 to 30.7 µM) | – | – | –
27 | CC(C)c1nc(CCOC(N)=O)n(Cc2ccc(N)cc2)c1Sc1cc(Cl)cc(Cl)c1 [Compound I-140, 1-(p-aminobenzyl)-2-(2-carbamoyloxyethyl)-5-(3,5-dichlorophenylthio)-4-isopropyl-1H-imidazole] | 29.8 | 0.03 to 0.06 (≈ 0.0626 to 0.125 µM) | – | 6.3 to 12.5 (≈ 13.1 to 26.1 µM) | – | –
28 | CC(C)c1nc(CCOCc2ccccc2)n(Cc2ccncc2)c1Sc1cc(Cl)cc(Cl)c1 [Compound 122b, 4-[2-(2-benzyloxyethyl)-5-(3,5-dichlorophenylthio)-4-isopropyl-1H-imidazol-1-ylmethy]pyridine] | 71.4 | 0.5 to 1 (≈ 0.976 to 1.95 µM) | – | 6.3 (≈ 12.3 µM) | – | –
29 | CC(Cn1c(COC(N)=O)nc(C(C)C)c1Sc1cc(Cl)cc(Cl)c1)OC(N)=O (stereo not drawn) [Compound I-152, 2-carbamoyloxymethyl-1-(2-carbamoyloxypropyl)-5-(3,5-dichlorophenylthio)-4-isopropyl-1H-imidazole] | 3.25 | < 0.008 | – | 12.5 to 25 (≈ 27.1 to 54.2 µM) | – | –
30 | CC(C)c1nc(CO)n(Cc2ccccc2)c1Sc1cc(Cl)cc(Cl)c1 [Compound I-16, [1-benzyl-5-(3,5-dichlorophenylthio)-4-isopropyl-1H-imidazol-2-yl]methanol] | 3.68 | 0.008 to 0.016 (≈ 0.0196 to 0.0393 µM) | 12.5 to 25 (≈ 30.7 to 61.4 µM) | – | – | –
31 | CC(C)c1nc(CN)n(Cc2ccccc2)c1Sc1cc(Cl)cc(Cl)c1 [Compound I-70, 2-aminomethyl-1-benzyl-5-(3,5-dichlorophenylthio)-4-isopropylimidazole] | 4.43 | 0.03 (≈ 0.0738 µM) | 6.3 to 12.5 (≈ 15.5 to 30.8 µM) | – | – | –
32 | CC(C)c1nc(CCOCc2ccccc2)n(C)c1Sc1cc(Cl)cc(Cl)c1 [Compound I-136, 2-(2-benzyloxyethyl)-5-(3,5-dichlorophenylthio)-4-isopropyl-1-methyl-1H-imidazole] | – | 0.008 to 0.016 (≈ 0.0184 to 0.0367 µM) | – | 12.5 (≈ 28.7 µM) | – | 4.59
